Reference: ChEMBL document CHEMBL1287762, “Synthesis and biological evaluation of 3-[4-(amino/methylsulfonyl)phenyl]methylene-indolin-2-one derivatives as novel COX-1/2 and 5-LOX inhibitors” (Bioorg Med Chem Lett, 2010)

Assays:
Rattus norvegicus [1] = assay: Ulcerogenic effect in Wistar rat assessed as gastric ulcer area at 9.08 mg/kg, po administered for 7 days by microscopy; format: toxicity, organism-based, Stomach; set-up: dose 9.08 mg/kg, route oral; conditions: in vivo, 168 h
Oryctolagus cuniculus = species on record: Oryctolagus cuniculus; assay: Selectivity ratio, IC50 for COX-1in rabbit peripheral venous blood to IC50 for COX-2 in rabbit peripheral venous blood; format: tissue-based
[2] = molecular target: T1, Prostaglandin G/H synthase 2 (Oryctolagus cuniculus, UniProt O02768); assay: Inhibition of COX-2 in rabbit peripheral venous blood assessed as formation of 12-hydroxyheptadecatrienoic acid after 24 hrs in by HPLC presence of calcium ionophore […] and lipopolysaccharide; format: tissue-based
T1 sequence (O02768 whole entry): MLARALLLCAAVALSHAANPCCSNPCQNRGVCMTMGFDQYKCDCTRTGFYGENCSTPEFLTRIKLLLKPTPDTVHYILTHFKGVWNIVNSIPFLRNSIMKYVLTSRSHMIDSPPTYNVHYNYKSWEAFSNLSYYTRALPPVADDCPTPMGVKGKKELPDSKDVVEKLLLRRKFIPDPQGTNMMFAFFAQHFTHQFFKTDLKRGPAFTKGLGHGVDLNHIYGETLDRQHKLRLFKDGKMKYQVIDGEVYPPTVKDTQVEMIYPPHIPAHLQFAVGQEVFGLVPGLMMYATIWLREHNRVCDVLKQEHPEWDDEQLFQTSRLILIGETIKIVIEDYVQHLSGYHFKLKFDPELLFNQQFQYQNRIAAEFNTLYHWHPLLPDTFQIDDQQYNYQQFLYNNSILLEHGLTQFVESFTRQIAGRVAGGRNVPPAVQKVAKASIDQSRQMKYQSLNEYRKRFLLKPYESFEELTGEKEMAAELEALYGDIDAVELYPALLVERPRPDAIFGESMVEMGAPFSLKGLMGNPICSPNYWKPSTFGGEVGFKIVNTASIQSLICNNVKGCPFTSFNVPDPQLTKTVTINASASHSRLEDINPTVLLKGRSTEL

[3] = molecular target: T2, Prostaglandin G/H synthase 1 (Oryctolagus cuniculus, UniProt O97554); assay: Inhibition of COX-1 in rabbit peripheral venous blood assessed as formation of 12-hydroxyheptadecatrienoic acid after 24 hrs by HPLC in presence of calcium ionophore A23187
T2 sequence (O97554 whole entry): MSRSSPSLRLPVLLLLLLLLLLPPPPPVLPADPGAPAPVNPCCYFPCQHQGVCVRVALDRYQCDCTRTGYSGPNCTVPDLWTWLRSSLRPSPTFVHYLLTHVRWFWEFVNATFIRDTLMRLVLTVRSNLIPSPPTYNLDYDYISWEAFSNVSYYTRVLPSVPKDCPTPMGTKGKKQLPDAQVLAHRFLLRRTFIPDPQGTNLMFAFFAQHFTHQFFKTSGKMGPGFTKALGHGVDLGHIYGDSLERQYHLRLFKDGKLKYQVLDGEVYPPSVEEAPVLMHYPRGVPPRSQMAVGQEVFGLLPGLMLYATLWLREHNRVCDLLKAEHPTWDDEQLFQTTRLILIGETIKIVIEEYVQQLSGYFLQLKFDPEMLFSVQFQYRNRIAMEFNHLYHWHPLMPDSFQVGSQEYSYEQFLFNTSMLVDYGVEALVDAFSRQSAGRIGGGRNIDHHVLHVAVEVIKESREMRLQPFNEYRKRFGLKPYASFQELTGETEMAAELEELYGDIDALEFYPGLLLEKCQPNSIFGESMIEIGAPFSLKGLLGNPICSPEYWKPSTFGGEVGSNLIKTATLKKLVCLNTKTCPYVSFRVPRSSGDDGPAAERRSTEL

Rattus norvegicus [4] = assay: Antiinflammatory activity in Wistar rat assessed as inhibition of carrageenan-induced paw edema at 9.08 mg/kg, po administered 1 hr before carrageenan challenge measured at 3 hrs by plethysmometer; format: functional
Rattus norvegicus [5] = assay: Antiinflammatory activity in Wistar rat assessed as inhibition of carrageenan-induced paw edema at 9.08 mg/kg, po administered 1 hr before carrageenan challenge measured at 1 hr by plethysmometer; format: functional
Mus musculus [6] = assay: Analgesic activity in BALB/c mouse assessed as inhibition of acetic acid-induced writhing response for 15 mins at 18.16 mg/kg, po; format: functional; conditions: 0.25 h
Rattus norvegicus [7] = assay: Antiinflammatory activity in Wistar rat assessed as inhibition of carrageenan-induced paw edema at 9.08 mg/kg, po administered 1 hr before carrageenan challenge measured at 6 hrs by plethysmometer; format: functional
[8] = Inhibition of 5-LOX in rabbit peripheral venous blood assessed as formation of […] after 30 mins by HPLC; format: tissue-based, Oryctolagus cuniculus
Rattus norvegicus [9] = assay: Antiinflammatory activity in Wistar rat assessed as inhibition of carrageenan-induced paw edema at 13 mg/kg, po administered 1 hr before carrageenan challenge measured at 6 hrs by plethysmometer; format: functional
Rattus norvegicus [10] = assay: Ulcerogenic effect in Wistar rat assessed as gastric ulcer area at 13 mg/kg, po administered for 7 days by microscopy; format: toxicity, organism-based, Stomach; set-up: dose 13 mg/kg, route oral; conditions: in vivo, 168 h
Rattus norvegicus [11] = assay: Antiinflammatory activity in Wistar rat assessed as inhibition of carrageenan-induced paw edema at 1 mg/kg, po administered 1 hr before carrageenan challenge measured at 3 hrs by plethysmometer; format: functional
Rattus norvegicus [12] = assay: Antiinflammatory activity in Wistar rat assessed as inhibition of carrageenan-induced paw edema at 13 mg/kg, po administered 1 hr before carrageenan challenge measured at 1 hr by plethysmometer; format: functional
Mus musculus [13] = assay: Analgesic activity in BALB/c mouse assessed as inhibition of acetic acid-induced writhing response for 15 mins at 26 mg/kg, po; format: functional; conditions: 0.25 h
Rattus norvegicus [14] = assay: Antiinflammatory activity in Wistar rat assessed as inhibition of carrageenan-induced paw edema at 10.47 mg/kg, po administered 1 hr before carrageenan challenge measured at 3 hrs by plethysmometer; format: functional
Rattus norvegicus [15] = assay: Ulcerogenic effect in Wistar rat assessed as gastric ulcer area at 10.47 mg/kg, po administered for 7 days by microscopy; format: toxicity, organism-based, Stomach; set-up: dose 10.47 mg/kg, route oral; conditions: in vivo, 168 h
Rattus norvegicus [16] = assay: Antiinflammatory activity in Wistar rat assessed as inhibition of carrageenan-induced paw edema at 10.47 mg/kg, po administered 1 hr before carrageenan challenge measured at 1 hr by plethysmometer; format: functional
Rattus norvegicus [17] = assay: Antiinflammatory activity in Wistar rat assessed as inhibition of carrageenan-induced paw edema at 10.47 mg/kg, po administered 1 hr before carrageenan challenge measured at 6 hrs by plethysmometer; format: functional
Mus musculus [18] = assay: Analgesic activity in BALB/c mouse assessed as inhibition of acetic acid-induced writhing response for 15 mins at 20.94 mg/kg, po; format: functional; conditions: 0.25 h
Rattus norvegicus [19] = assay: Antiinflammatory activity in Wistar rat assessed as inhibition of carrageenan-induced paw edema at 10.12 mg/kg, po administered 1 hr before carrageenan challenge measured at 1 hr by plethysmometer; format: functional
Rattus norvegicus [20] = assay: Antiinflammatory activity in Wistar rat assessed as inhibition of carrageenan-induced paw edema at 10.12 mg/kg, po administered 1 hr before carrageenan challenge measured at 6 hrs by plethysmometer; format: functional
Rattus norvegicus [21] = assay: Antiinflammatory activity in Wistar rat assessed as inhibition of carrageenan-induced paw edema at 10.12 mg/kg, po administered 1 hr before carrageenan challenge measured at 3 hrs by plethysmometer; format: functional
Mus musculus [22] = assay: Analgesic activity in BALB/c mouse assessed as inhibition of acetic acid-induced writhing response for 15 mins at 20.24 mg/kg, po; format: functional; conditions: 0.25 h
Rattus norvegicus [23] = assay: Ulcerogenic effect in Wistar rat assessed as gastric ulcer area at 10.12 mg/kg, po administered for 7 days by microscopy; format: toxicity, organism-based, Stomach; set-up: dose 10.12 mg/kg, route oral; conditions: in vivo, 168 h
Rattus norvegicus [24] = assay: Antiinflammatory activity in Wistar rat assessed as inhibition of carrageenan-induced paw edema at 10.15 mg/kg, po administered 1 hr before carrageenan challenge measured at 3 hrs by plethysmometer; format: functional
Rattus norvegicus [25] = assay: Ulcerogenic effect in Wistar rat assessed as gastric ulcer area at 10.15 mg/kg, po administered for 7 days by microscopy; format: toxicity, organism-based, Stomach; set-up: dose 10.15 mg/kg, route oral; conditions: in vivo, 168 h
Rattus norvegicus [26] = assay: Antiinflammatory activity in Wistar rat assessed as inhibition of carrageenan-induced paw edema at 10.15 mg/kg, po administered 1 hr before carrageenan challenge measured at 6 hrs by plethysmometer; format: functional
Rattus norvegicus [27] = assay: Antiinflammatory activity in Wistar rat assessed as inhibition of carrageenan-induced paw edema at 10.15 mg/kg, po administered 1 hr before carrageenan challenge measured at 1 hr by plethysmometer; format: functional
Mus musculus [28] = assay: Analgesic activity in BALB/c mouse assessed as inhibition of acetic acid-induced writhing response for 15 mins at 20.30 mg/kg, po; format: functional; conditions: 0.25 h

SMILES	IC50 [2]	IC50 [3]	IC50 [8]	Ratio IC50 (Oryctolagus cuniculus)	further results
CS(=O)(=O)c1ccc(/C=C2/C(=O)Nc3ccccc32)cc1	5.52 µM	9.32 µM	9.51 µM	1.69	Activity (Rattus norvegicus [1]): 0.56 mm2; inhibition in vivo at 9.08 mg/kg (Rattus norvegicus [4]): 38.9%; inhibition in vivo at 9.08 mg/kg (Rattus norvegicus [5]): 28.6%; inhibition in vivo at 18.16 mg/kg (Mus musculus [6]): 54.4%; inhibition in vivo at 9.08 mg/kg (Rattus norvegicus [7]): 21.6%
CS(=O)(=O)c1ccc(/C=C2/C(=O)Nc3ccc(F)cc32)cc1	> 50 µM	8.99 µM	9.42 µM	–	–
Cc1ccc2c(c1)/C(=C\c1ccc(S(N)(=O)=O)cc1)C(=O)N2	> 50 µM	> 50 µM	> 50 µM	–	–
NS(=O)(=O)c1ccc(/C=C2/C(=O)Nc3ccc(Br)cc32)cc1	20.9 µM	24.6 µM	10.6 µM	1.18	–
CS(=O)(=O)c1ccc(/C=C2/C(=O)Nc3ccc(Cl)cc32)cc1	3.82 µM	> 50 µM	> 50 µM	–	inhibition in vivo at 10.12 mg/kg (Rattus norvegicus [19]): 14.3%; inhibition in vivo at 10.12 mg/kg (Rattus norvegicus [20]): 41.7%; inhibition in vivo at 10.12 mg/kg (Rattus norvegicus [21]): 15.7%; inhibition in vivo at 20.24 mg/kg (Mus musculus [22]): 63.3%; Activity (Rattus norvegicus [23]): 0.88 mm2

Stronger by IC50 [8], values ahead:

IC50 [2]	IC50 [3]	IC50 [8]	SMILES	Ratio IC50 (Oryctolagus cuniculus)	further results
–	–	0.61 µM	CC(C)(C)c1cc(/C=C2\SC(=N)NC2=O)cc(C(C)(C)C)c1O.CS(=O)(=O)O [DARBUFELONE MESYLATE]	342	inhibition in vivo at 13 mg/kg (Rattus norvegicus [9]): 17.6%; Activity (Rattus norvegicus [10]): 0.87 mm2; inhibition in vivo at 1 mg/kg (Rattus norvegicus [11]): 36.1%; inhibition in vivo at 13 mg/kg (Rattus norvegicus [12]): 19.1%; inhibition in vivo at 26 mg/kg (Mus musculus [13]): 86.2%
3.72 µM	0.14 µM	3.06 µM	NS(=O)(=O)c1ccc(/C=C2/C(=O)Nc3ccc([N+](=O)[O-])cc32)cc1	0.04	inhibition in vivo at 10.47 mg/kg (Rattus norvegicus [14]): 22.2%; Activity (Rattus norvegicus [15]): 0.12 mm2; inhibition in vivo at 10.47 mg/kg (Rattus norvegicus [16]): 9.52%; inhibition in vivo at 10.47 mg/kg (Rattus norvegicus [17]): 13.7%; inhibition in vivo at 20.94 mg/kg (Mus musculus [18]): 40.8%
3.31 µM	0.16 µM	3.37 µM	NS(=O)(=O)c1ccc(/C=C2/C(=O)Nc3ccc(Cl)cc32)cc1	0.05	inhibition in vivo at 10.15 mg/kg (Rattus norvegicus [24]): 33.3%; Activity (Rattus norvegicus [25]): 0.19 mm2; inhibition in vivo at 10.15 mg/kg (Rattus norvegicus [26]): 19.6%; inhibition in vivo at 10.15 mg/kg (Rattus norvegicus [27]): 19.1%; inhibition in vivo at 20.3 mg/kg (Mus musculus [28]): 80.7%
